Laboratory results taken from ChEMBL document CHEMBL1151339, “Antitumor agents from bohemic acid complex, III. The isolation of marcellomycin, musettamycin, rudolphomycin, mimimycin, collinemycin, alcindoromycin, and bohemamine” (J Nat Prod, 1980).
In brackets after ≈: the same amount, converted by molar mass.

Legend:
Mus musculus [1] = assay: Toxicity in BDF1 mouse xenografted with mouse B16 cells assessed as survival at 0.05 mg/kg after 5 days; type: organism-based; design: dose 0.05 mg/kg
Candida tropicalis = assay: Antifungal activity against Candida tropicalis A15051 by 2-fold tube dilution method; type: functional
Enterococcus faecalis = assay: Antibacterial activity against Streptococcus faecalis A20688 by 2-fold tube dilution method; type: functional
B16 [2] = assay: Antitumor activity against mouse B16 cells xenografted in BDF1 mouse assessed as change in tumor average weight at 0.05 mg/kg; type: functional
L1210 [3] = assay: Antitumor activity against mouse L1210 cells xenografted in BDF1 mouse assessed as change in tumor average weight at 0.4 mg/kg, ip; type: functional; conditions: route intraperitoneal
B16 [4] = assay: Antitumor activity against mouse B16 cells xenografted in BDF1 mouse at 0.025 mg/kg relative to control; type: functional
L1210 [5] = assay: Antitumor activity against mouse L1210 cells xenografted in BDF1 mouse assessed as median survival time at 3.2 mg/kg, ip; type: functional; conditions: route intraperitoneal
Proteus vulgaris = assay: Antibacterial activity against Proteus vulgaris A21559 by 2-fold tube dilution method; type: functional
Mus musculus [6] = assay: Toxicity in BDF1 mouse xenografted with mouse L1210 cells assessed as survival at 12.8 mg/kg, ip after 5 days; type: organism-based; design: dose 12.8 mg/kg, route intraperitoneal; conditions: in vivo, 120 h
L1210 [7] = assay: Antitumor activity against mouse L1210 cells xenografted in BDF1 mouse at 1.6 mg/kg, ip relative to control; type: functional; conditions: route intraperitoneal
L1210 [8] = assay: Antitumor activity against mouse L1210 cells xenografted in BDF1 mouse at 3.2 mg/kg, ip relative to control; type: functional; conditions: route intraperitoneal
L1210 [9] = assay: Antitumor activity against mouse L1210 cells xenografted in BDF1 mouse assessed as change in tumor average weight at 1.6 mg/kg, ip; type: functional; conditions: route intraperitoneal
Candida albicans = assay: Antifungal activity against Candida albicans A15049 by 2-fold tube dilution method; type: functional
Mus musculus [10] = assay: Toxicity in BDF1 mouse xenografted with mouse B16 cells assessed as survival at 0.025 mg/kg after 5 days; type: organism-based; design: dose 0.025 mg/kg
L1210 [11] = assay: Antitumor activity against mouse L1210 cells xenografted in BDF1 mouse assessed as median survival time at 1.6 mg/kg, ip; type: functional; conditions: route intraperitoneal

## CC[C@@]1(O)C[C@H](O[C@H]2C[C@H](N(C)C)[C@H](O[C@H]3C[C@H](O)[C@H](O[C@@H]4O[C@@H](C)C(=O)C=C4N)[C@@H](C)O3)[C@@H](C)O2)c2c(cc3c(c2O)C(=O)c2c(O)ccc(O)c2C3=O)[C@H]1C(=O)OC [RUDOLPHOMYCIN]
Mus musculus [1]
  AC50: Non-toxic
Candida tropicalis
  MIC: > 16 µg/mL
Enterococcus faecalis
  MIC: 1 µg/mL (≈ 1.19 µM)
B16 [2]
  Activity: -0.8 g
L1210 [3]
  Activity: 0.9 g
B16 [4]
  T/C: 113%
L1210 [5]
  Activity: 8 days
Proteus vulgaris
  MIC: > 125 µg/mL
Mus musculus [6]
  Activity: Toxic
L1210 [7]
  T/C: 133%
L1210 [8]
  T/C: 107%
L1210 [9]
  Activity: -1.2 g
Candida albicans
  MIC: > 16 µg/mL
Mus musculus [10]
  AC50: Non-toxic
L1210 [11]
  Activity: 10 days
